From patent publication US7923461B2, “TNF-α production inhibitors” (Santen Pharmaceutical Co., Ltd., priority 2000, dated 2011)

Key:
TNF-α production = test: Inhibitory effects on TNF-α production induced by lipopolysaccharide (LPS) stimulation, in vivo test; design: species or system rat; settings: Rattus norvegicus, 2 h, female rats, plasma TNF-α (ELISA) two hours after LPS, read-out: Inhibition rate (%) of TNF-α production; for inhibition in vivo at 10 mg/kg: oral administration of 10 mg/kg immediately after LPS to footpad; for inhibition in vivo at 3 mg/kg: oral administration of 3 mg/kg immediately after LPS to footpad
Method: Inhibitory effects on TNF-α production induced by lipopolysaccharide (LPS) stimulation were studied by in vivo tests according to the method of Tsuji et al. (Inflamm res. 46 (1997) 193-198).
Female rats (five per group), body weight of about 200 g, about eight weeks old, were used as test animals. LPS from Salmonella was dissolved in physiological saline to prepare an LPS solution (1 mg/ml). Each test substance was dissolved or uniformly suspended in a 1% methylcellulose solution to give test substance-preparation liquids.
The above-mentioned LPS solution (0.5 ml/kg) was administered to a footpad of the rat. Immediately after the LPS administration, the test substance-preparation liquid (containing 10 mg/kg or 3 mg/kg test substance) was orally administered. Two hours after the LPS administration, blood was collected from abdominal aorta and was centrifuged at 4° C. and 3000 rpm for ten minutes. TNF-α levels in the obtained plasma were measured with a rat TNF-α-specific ELISA kit. TNF-α was not observed in the plasma with respect to an LPS-non-administered group (control).
Inhibition rates of TNF-α production of the test substances were determined by the following equation. Inhibition rate (%)=[(A−B)/A]×100 A: TNF-α level in plasma of test substance-nonadministered group B: TNF-α level in plasma of test substance-administered group (Results)

| melting point | Compound | inhibition in vivo at 10 mg/kg (TNF-α production) | inhibition in vivo at 3 mg/kg (TNF-α production) |
| --- | --- | --- | --- |
| 123 to 125 °C | O=C(NCCCc1ccncc1)N(CCC12CC3CC(CC(C3)C1)C2)CC1CC1 [Compound No. 1-22, 1-[2-(1-Adamantyl)ethyl]-1-cyclopropylmethyl-3-[3-(4-pyridyl)propyl]urea] | 87% | – |
| 107.5 to 109 °C | O=C(NCCCc1ccncc1)N(CCC(F)(F)F)CCC12CC3CC(CC(C3)C1)C2 [Compound No. 1-24, 1-[2-(1-Adamantyl)ethyl]-3-[3-(4-pyridyl)propyl]-1-(3,3,33-trifluoropropyl)urea] | 95.8% | – |
| 89.5 to 93.5 °C | CC=CCN(CCC12CC3CC(CC(C3)C1)C2)C(=O)NCCCc1ccncc1 [Compound No. 1-25, 1-[2-(1-Adamantyl)ethyl]1-(2-butenyl)-3-[3-(4-pyridyl)propyl]urea] | 89% | – |
| 142.5 to 144.5 °C | O=C(NCCCc1ccncc1)N(CCC12CC3CC(CC(C3)C1)C2)Cc1cccs1 [Compound No. 1-27, 1-[2-(1-Adamantyl)ethyl]-3-[3-(4-pyridyl)propyl]-1-(2-thienyl)methylurea] | 81.3% | – |
| 93 to 96 °C | CC(C)=CCN(CCC12CC3CC(CC(C3)C1)C2)C(=O)NCCCc1ccncc1 [Compound No. 1-31, 1-[2-(1-Adamantyl)ethyl]-1-(3-methyl-2-butenyl)-3-[3-(4-pyridyl)propyl]urea] | 92.6% | – |
| 75 to 76 °C | CCCCCCCCCCN(CCC12CC3CC(CC(C3)C1)C2)C(=O)NCCCc1ccncc1 [Compound No. 1-32, 1-[2-(1-Adamantyl)ethyl]-1-decyl-3-[3-(4-pyridyl)propyl]urea] | 62.4% | – |
| 130 to 134.5 °C | O=C(NCCCc1ccncc1)N(CC=Cc1ccccc1)CCC12CC3CC(CC(C3)C1)C2 [Compound No. 1-34, 1-[2-(1-Adamantyl)ethyl]-1-cinnamyl-3-[3-(4-pyridyl)propyl]urea] | 70.8% | – |
| 128 to 130 °C | O=C(NCCCc1ccncc1)N(CCC12CC3CC(CC(C3)C1)C2)Cc1ccco1 [Compound No. 1-42, 1-[2-(1-Adamantyl)ethyl]-1-furfuryl-3-[3-(4-pyridyl)propyl]urea] | 86.7% | – |
| 130.5 to 135 °C | O=C(NCCCc1ccncc1)N(CCC12CC3CC(CC(C3)C1)C2)Cc1ccccc1 [Compound No. 1-43, 1-[2-(1-Adamantyl)ethyl]-1-benzyl-3-[3-(4-pyridyl)propyl]urea] | 67.6% | – |
| 47 to 50 °C | CCCCCNC(=O)N(CCCc1ccncc1)CCC12CC3CC(CC(C3)C1)C2 [Compound No. 1-66, 1-[2-(1-Adamantyl)ethyl]-3-pentyl-1-[3-(4-pyridyl)propyl]urea] | 79.4% | – |
| 132 to 134 °C | CC(C)N(CCC12CC3CC(CC(C3)C1)C2)C(=O)NCCCc1ccncc1 [Compound No. 1-68, 1-[2-(1-Adamantyl)ethyl]-1-isopropyl-3-[3-(4-pyridyl)propyl]urea] | 79% | – |
| 135.5 to 137.5 °C | O=C(NCCCc1ccncc1)N(CCC12CC3CC(CC(C3)C1)C2)C1CCCC1 [Compound No. 1-70, 1-[2-(1-Adamantyl)ethyl]-1-cyclopentyl-3-[3-(4-pyridyl)propyl]urea] | 87.9% | – |
| 99.9 to 105.2 °C | CCCCCN(CCC12CC3CC(CC(C3)C1)C2)C(=O)NCCCc1cccnc1 [Compound No. 1-84, 1-[2-(1-Adamantyl)ethyl]-1-pentyl-3-[3-(3-pyridyl)propyl]urea] | – | 35.5% |
| 128.5 to 129 °C | CCCCCN(CCC12CC3CC(CC(C3)C1)C2)C(=O)NC(C)CCc1ccncc1 (stereo not shown) [Compound No. 1-137, 1-[2-(1-Adamantyl)ethyl]-3-[1-methyl-3-(4-pyridyl)propyl]-1-pentylurea] | – | 82.1% |
